Measurements taken from patent US20220144823A1, “PYRAZOLOPYRIDINE DERIVATIVES AS INHIBITORS OF PASK” (Galapagos NV, priority 2019, published 2022).

Tested on: diabetic non human primates (NHPs) under a high-calorie diet (HCD)
Assay: Diabetic monkey model;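 note: male obese diabetic cynomolgus monkeys fed a high-fat, high-fructose diet, randomized into 4 groups, dosed with test compound for 8 weeks, then a 4-week washout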
Settings: for Oral glucose tolerance test (glucose AUC): fasted animals; for Hepatic echogenicity (H/R ratio): Hepatic (right lobe)/Renal cortex (right kidney) ratio, ultrasound
[1] = week 1, treatment, metformin 25 mg/kg b.i.d., Cpd 18 30 mg/kg q.d., p.o.
[2] = week 2, treatment, metformin 25 mg/kg b.i.d., Cpd 18 30 mg/kg q.d., p.o.
[3] = week 3, treatment, metformin 25 mg/kg b.i.d., Cpd 18 30 mg/kg q.d., p.o.
[4] = week 4, treatment, metformin 25 mg/kg b.i.d., Cpd 18 30 mg/kg q.d., p.o.
[5] = week 9, washout without treatment
[6] = week 10, washout without treatment
[7] = week 11, washout without treatment
[8] = week 12, washout without treatment

Procedure: The aim of this assay is to determine the effect of a test compound on lipid metabolism and glucose handling in diabetic non human primates (NHPs) under a high-calorie diet (HCD) consisting of high-fat and high-fructose.
Male obese diabetic cynomolgus monkeys were selected based on their body weights, glucose, insulin levels, and blood lipid parameters. The inclusion criteria were the following: age ≤22 years; fasted plasma glucose between 120 and 300 mg/dL; triglycerides >125 mg/dL, and insulin >75 mIU/mL.
The animals are maintained at 20-23° C. and 40-70% humidity on a 12 h light/dark cycle (7 AM-7 PM). Water is provided ad libitum and the animals are fed twice daily with the high-calorie diet (HCD) enriched with seasonal fruits or vegetables.
After the baseline period, animals were randomized into 4 groups according to body weight, as well as their blood glucose and lipid parameters.
The following parameters were measured once per week during the 8 weeks of treatment and also during the 4 weeks of washout: • body weight • food consumption • blood chemistry (fasted blood glucose, plasma triglycerides, plasma total cholesterol, low density lipoproteins (LDL), and high density lipoproteins (HDL))
Oral glucose tolerance was measured in fasted animals before treatment initiation (baseline), at the end of the treatment period (week 8), and after 4 weeks of washout (week 12).

Cc1nn(C(C)C)c(C)c1-c1cnn2ccc(-c3cc(C(=O)O)co3)cc12 [Cpd 18, 5-[3-(1-isopropyl-3,5-dimethyl-pyrazol-4-yl)pyrazolo[1,5-a]pyridin-5-yl]furan-3-carboxylic acid]
Total cholesterol change (% change from baseline) (Group 3, week 9, washout): −31.5 % change from baseline | Triglyceride change (% change from baseline) (Group 3, week 9, washout): −49.3 % change from baseline | HDL change (% change from baseline) (Group 3, week 10, washout): 8.0% | LDL change (% change from baseline) (Group 3, week 10, washout): −13.5% | Total cholesterol change (% change from baseline) (Group 3, week 10, washout): −8.2 % change from baseline | Triglyceride change (% change from baseline) (Group 3, week 10, washout): −45.9 % change from baseline | HDL change (% change from baseline) (Group 3, week 11, washout): 21.9% | LDL change (% change from baseline) (Group 3, week 11, washout): 10.2% | Total cholesterol change (% change from baseline) (Group 3, week 11, washout): 15.5 % change from baseline | Triglyceride change (% change from baseline) (Group 3, week 11, washout): −19.9 % change from baseline | HDL change (% change from baseline) (Group 3, week 12, washout): 23.9% | LDL change (% change from baseline) (Group 3, week 12, washout): 46.2% | Total cholesterol change (% change from baseline) (Group 3, week 12, washout): 48.7 % change from baseline | Triglyceride change (% change from baseline) (Group 3, week 12, washout): 18.8 % change from baseline | HDL change (% change from baseline) (Group 4, week 1, treatment): 2.1% | LDL change (% change from baseline) (Group 4, week 1, treatment): 67.1% | Total cholesterol change (% change from baseline) (Group 4, week 1, treatment): 50.9 % change from baseline | Triglyceride change (% change from baseline) (Group 4, week 1, treatment): −31.7 % change from baseline | HDL change (% change from baseline) (Group 4, week 2, treatment): −13.1% | LDL change (% change from baseline) (Group 4, week 2, treatment): 46.7% | Total cholesterol change (% change from baseline) (Group 4, week 2, treatment): 30.3 % change from baseline | Triglyceride change (% change from baseline) (Group 4, week 2, treatment): −30.0 % change from baseline | HDL change (% change from baseline) (Group 4, week 3, treatment): −14.9% | LDL change (% change from baseline) (Group 4, week 3, treatment): 33.6% | Total cholesterol change (% change from baseline) (Group 4, week 3, treatment): 20.9 % change from baseline | Triglyceride change (% change from baseline) (Group 4, week 3, treatment): −28.2 % change from baseline | HDL change (% change from baseline) (Group 4, week 4, treatment): −16.0% | LDL change (% change from baseline) (Group 4, week 4, treatment): −21.9% | Total cholesterol change (% change from baseline) (Group 4, week 4, treatment): −22.6 % change from baseline | Triglyceride change (% change from baseline) (Group 4, week 4, treatment): −48.3 % change from baseline | HDL change (% change from baseline) (Group 4, week 5, treatment): −6.9% | LDL change (% change from baseline) (Group 4, week 5, treatment): 0.0% | Total cholesterol change (% change from baseline) (Group 4, week 5, treatment): −7.8 % change from baseline | Triglyceride change (% change from baseline) (Group 4, week 5, treatment): −52.3 % change from baseline | HDL change (% change from baseline) (Group 4, week 6, treatment): 0.3% | LDL change (% change from baseline) (Group 4, week 6, treatment): 2.1% | Total cholesterol change (% change from baseline) (Group 4, week 6, treatment): −2.6 % change from baseline | Triglyceride change (% change from baseline) (Group 4, week 6, treatment): −50.8 % change from baseline | HDL change (% change from baseline) (Group 4, week 7, treatment): 0.9% | LDL change (% change from baseline) (Group 4, week 7, treatment): −38.5% | Total cholesterol change (% change from baseline) (Group 4, week 7, treatment): −32.9 % change from baseline | Triglyceride change (% change from baseline) (Group 4, week 7, treatment): −63.2 % change from baseline | HDL change (% change from baseline) (Group 4, week 8, treatment): 8.7% | LDL change (% change from baseline) (Group 4, week 8, treatment): −32.5% | Total cholesterol change (% change from baseline) (Group 4, week 8, treatment): −26.1 % change from baseline | Triglyceride change (% change from baseline) (Group 4, week 8, treatment): −56.1 % change from baseline | HDL change (% change from baseline) (Group 4, week 9, washout): 18.9% | LDL change (% change from baseline) (Group 4, week 9, washout): −20.0% | Total cholesterol change (% change from baseline) (Group 4, week 9, washout): −15.5 % change from baseline | Triglyceride change (% change from baseline) (Group 4, week 9, washout): −60.2 % change from baseline | HDL change (% change from baseline) (Group 4, week 10, washout): 6.0% | LDL change (% change from baseline) (Group 4, week 10, washout): 29.3% | Total cholesterol change (% change from baseline) (Group 4, week 10, washout): 10.9 % change from baseline | Triglyceride change (% change from baseline) (Group 4, week 10, washout): −58.1 % change from baseline | HDL change (% change from baseline) (Group 4, week 11, washout): 11.0% | LDL change (% change from baseline) (Group 4, week 11, washout): 45.1% | Total cholesterol change (% change from baseline) (Group 4, week 11, washout): 28.5 % change from baseline | Triglyceride change (% change from baseline) (Group 4, week 11, washout): −41.4 % change from baseline | HDL change (% change from baseline) (Group 4, week 12, washout): 12.0% | LDL change (% change from baseline) (Group 4, week 12, washout): 87.5% | Total cholesterol change (% change from baseline) (Group 4, week 12, washout): 58.3 % change from baseline | Triglyceride change (% change from baseline) (Group 4, week 12, washout): −65.4 % change from baseline | Oral glucose tolerance test (glucose AUC) (week 0, baseline (before treatment initiation)): 2371 mmol·min/L | Bodyweight change (% change from baseline) [1]: 0.4% | HbA1c change (% change from baseline) [1]: −6.3% | Bodyweight change (% change from baseline) [2]: −1.9% | HbA1c change (% change from baseline) [2]: −9.4% | Bodyweight change (% change from baseline) [3]: −3.8% | HbA1c change (% change from baseline) [3]: −17.2% | Bodyweight change (% change from baseline) [4]: −5.6% | HbA1c change (% change from baseline) [4]: −24.1% | Oral glucose tolerance test (glucose AUC) (week 8, end of treatment period): 2307 mmol·min/L | Bodyweight change (% change from baseline) [5]: −13.6% | HbA1c change (% change from baseline) [5]: −30.7% | Hepatic echogenicity (H/R ratio) (week 9, washout): 1.03 | Bodyweight change (% change from baseline) [6]: −14.5% | HbA1c change (% change from baseline) [6]: −25.6% | Bodyweight change (% change from baseline) [7]: −14.3% | HbA1c change (% change from baseline) [7]: −21.3% | Oral glucose tolerance test (glucose AUC) (week 12, after 4 weeks of washout): 2291 mmol·min/L | Bodyweight change (% change from baseline) [8]: −14.8% | HbA1c change (% change from baseline) [8]: −27.9% | Hepatic echogenicity (H/R ratio) (week −3, baseline): 1.13
